Results reported in publication PMC7158045 (BMC Plant Biology, 2020).
Counter-ions that a name gives are not always drawn.

Experiments:
Experiment in all cases: biochemical
ZmDRIK1-K217-P492 = target: T1, ZmDRIK1-K217-P492 (Zea mays, UniProt C0P4K9); conditions: read-out: dTm B, sheet ZmDRIK1-K217-P492;; DSF, Boltzmann fit, 0.1% DMSO
T1 construct: kinase domain, K217-P492
T1 sequence (C0P4K9 1-514): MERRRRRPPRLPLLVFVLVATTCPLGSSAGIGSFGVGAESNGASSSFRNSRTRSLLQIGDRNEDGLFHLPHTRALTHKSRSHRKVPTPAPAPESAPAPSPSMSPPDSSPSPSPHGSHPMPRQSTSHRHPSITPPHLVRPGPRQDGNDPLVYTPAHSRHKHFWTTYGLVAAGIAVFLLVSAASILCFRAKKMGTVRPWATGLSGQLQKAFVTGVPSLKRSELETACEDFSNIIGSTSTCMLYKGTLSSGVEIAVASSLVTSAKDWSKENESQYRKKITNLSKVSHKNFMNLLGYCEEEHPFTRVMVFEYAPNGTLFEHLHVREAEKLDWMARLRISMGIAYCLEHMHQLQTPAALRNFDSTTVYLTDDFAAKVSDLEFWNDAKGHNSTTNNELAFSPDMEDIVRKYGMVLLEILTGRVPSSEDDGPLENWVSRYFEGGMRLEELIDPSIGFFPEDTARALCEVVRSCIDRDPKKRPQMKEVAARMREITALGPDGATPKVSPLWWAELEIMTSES

ZmDRIK1-R187-P492 = target: T2, ZmDRIK1-R187-P492 (Zea mays, UniProt C0P4K9); conditions: read-out: dTm B, DSF, Boltzmann fit, 0.1% DMSO
T2 construct: kinase domain, R187-P492
T2 sequence (C0P4K9 1-514): T1 sequence (C0P4K9 1-514)

ZmDRIK1-K217-S514 = target: T3, ZmDRIK1-K217-S514 (Zea mays, UniProt C0P4K9); conditions: read-out: dTm B, sheet ZmDRIK1-K217-S514;; DSF, Boltzmann fit, 0.1% DMSO
T3 construct: kinase domain, K217-S514
T3 sequence (C0P4K9 1-514): T1 sequence (C0P4K9 1-514)

[1] = target: T4, ZmDRIK1 (DROUGHT RESPONSIVE INACTIVE KINASE 1), kinase domain (Zea mays, UniProt C0P4K9); conditions: read-out: dTm B, sheet ZmDRIK1-R187-S514;; DSF, Boltzmann fit, 0.1% DMSO
T4 construct: gene ZEAMMB73_Zm00001d028770; ZmDRIK1-KD R187-S514 (kinase domain)
T4 sequence (C0P4K9 187-514): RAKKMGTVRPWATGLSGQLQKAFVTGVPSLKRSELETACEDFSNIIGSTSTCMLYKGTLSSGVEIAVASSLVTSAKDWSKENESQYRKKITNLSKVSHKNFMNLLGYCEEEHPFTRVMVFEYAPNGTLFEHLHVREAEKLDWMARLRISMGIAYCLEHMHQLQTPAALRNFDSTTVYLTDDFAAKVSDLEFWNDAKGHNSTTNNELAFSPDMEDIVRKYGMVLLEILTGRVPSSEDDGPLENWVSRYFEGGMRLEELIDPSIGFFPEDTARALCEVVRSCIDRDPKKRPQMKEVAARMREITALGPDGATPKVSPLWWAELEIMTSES

| SMILES | ΔTm at 10 µM (ZmDRIK1-K217-P492) [°C] | ΔTm at 10 µM (ZmDRIK1-R187-P492) [°C] | ΔTm at 10 µM (ZmDRIK1-K217-S514) [°C] | ΔTm at 10 µM [1] [°C] |
| --- | --- | --- | --- | --- |
| Cc1nc(N)sc1-c1ccnc(Nc2ccc(N3CCOCC3)cc2)n1 [CYC116] | -0.775 | 0.313 | -0.183 | -1.14 |
| N#CCNC(=O)c1ccc(-c2ccnc(Nc3ccc(N4CCOCC4)cc3)n2)cc1 [CYT387] | -0.574 | -0.227 | -0.388 | -0.664 |
| CC(C)(C)NS(=O)(=O)c1cncc(-c2cc(F)c3nc(N)nn3c2)c1 [CZC24832] | -1.04 | -0.444 | -0.339 | -0.757 |
| COc1cc2c(Oc3ccc4[nH]c(C)cc4c3F)ncnc2cc1OCCCN1CCCC1 [Cediranib (AZD2171)] | -1.09 | -0.191 | -0.229 | -0.769 |
| Cc1cc(O)c2c(c1)C(=O)c1cccc(O)c1C2=O [Chrysophanic Acid] | -1.17 | -0.205 | -0.229 | -0.414 |
| CC1(COc2ccc3c(c2)ncn3-c2ccc3cccc(N4CCC(N)CC4)c3n2)COC1 [Crenolanib (CP-868596)] | -0.453 | -0.209 | -0.0308 | -0.526 |
| CNC(=O)c1cc(Oc2ccc(NC(=O)Nc3cc(C(C)(C)C)nn3-c3ccc4ncccc4c3)c(F)c2)ccn1 [DCC-2036 (Rebastinib)] | -1.25 | -0.261 | -0.422 | -1.41 |
| COc1cc2ncnc(Nc3ccc(F)c(Cl)c3)c2cc1NC(=O)/C=C/CN1CCCCC1 [Dacomitinib (PF299804)] | -0.0919 | -0.258 | -0.1 | -0.735 |
| CO[C@@H](C(=O)N1Cc2[nH]nc(NC(=O)c3ccc(N4CCN(C)CC4)cc3)c2C1)c1ccccc1 [Danusertib (PHA-739358)] | -0.905 | -0.184 | -0.209 | -0.644 |
| Cc1nc(Nc2ncc(C(=O)Nc3c(C)cccc3Cl)s2)cc(N2CCN(CCO)CC2)n1 [Dasatinib] | -1.24 | -0.493 | -0.388 | -0.74 |
| CCC[C@H](NC(=O)/C(C#N)=C/c1cccc(Br)n1)c1ccccc1 [Degrasyn (WP1130)] | -5.21 | -3.03 | -3.28 | -5.72 |
| O=c1cc(CN2CCOCC2)occ1OCCCCCSc1ccnc2cc(C(F)(F)F)ccc12 [EHT 1864] | -0.4 | -0.298 | -0.387 | -0.648 |
| CCn1c2ccccc2c2cc(Nc3ccnc(NCCCN4CCOCC4)n3)ccc21 [EHop-016] | -1.16 | -0.204 | -0.29 | -0.693 |
| CC(C)(C#N)c1ccc(N2C(=O)OCc3cnc4ccc(-c5cnc6ccccc6c5)cc4c32)cc1 [ETP-46464] | -1.05 | -0.423 | -0.552 | -0.702 |
| Cn1cc(C2=C(c3cn(C4CCN(Cc5ccccn5)CC4)c4ccccc34)C(=O)NC2=O)c2ccccc21 [Enzastaurin (LY317615)] | -1.33 | -0.261 | -0.275 | -0.678 |
| C#Cc1cccc(Nc2ncnc3cc(OCCOC)c(OCCOC)cc23)c1 [Erlotinib HCl (OSI-744)] | -1.09 | -0.278 | -0.264 | -0.54 |
| CO[C@H]1C[C@@H]2CC[C@@H](C)[C@@](O)(O2)C(=O)C(=O)N2CCCC[C@H]2C(=O)O[C@H]([C@H](C)C[C@@H]2CC[C@@H](OCCO)[C@H](OC)C2)CC(=O)[C@H](C)/C=C(\C)[C@@H](O)[C@@H](OC)C(=O)[C@H](C)C[C@H](C)/C=C/C=C/C=C/1C [Everolimus (RAD001)] | -1.22 | -0.526 | -0.327 | -0.644 |
| O=S(=O)(c1cccc2cnccc12)N1CCCNCC1 [Fasudil (HA-1077) HCl] | -0.949 | -0.0771 | -0.253 | -0.908 |
| O=C(Nc1nc2cccc(-c3ccc(CN4CCS(=O)(=O)CC4)cc3)n2n1)C1CC1 [Filgotinib (GLPG0634)] | -1.16 | -0.607 | -0.594 | -0.878 |
| CCCCCCCCc1ccc(CCC(N)(CO)CO)cc1 [Fingolimod (FTY720) HCl] | -1.47 | -0.447 | -0.608 | -0.542 |
| CN1CC[C@H](c2c(O)cc(O)c3c(=O)cc(-c4ccccc4Cl)oc23)[C@H](O)C1 [Flavopiridol HCl] | -1.16 | -0.272 | -0.391 | -0.837 |
| COc1cc(Nc2ncc(F)c(Nc3ccc4c(n3)N(COP(=O)(O)O)C(=O)C(C)(C)O4)n2)cc(OC)c1OC [Fostamatinib (R788)] | -0.792 | -0.222 | -0.314 | -0.579 |
| Cc1c(CN2CCN(C(=O)[C@H](C)O)CC2)sc2c(N3CCOCC3)nc(-c3cnc(N)nc3)nc12 [GDC-0980 (RG7422)] | -1.16 | -0.177 | -0.304 | -0.737 |
| CN(C)CCCn1cc(C2=C(c3c[nH]c4ccccc34)C(=O)NC2=O)c2ccccc21 [GF109203X] | -1.16 | -0.337 | -0.324 | -0.748 |

The next lines start with the values.

| ΔTm at 10 µM (ZmDRIK1-K217-P492) [°C] | ΔTm at 10 µM (ZmDRIK1-R187-P492) [°C] | ΔTm at 10 µM (ZmDRIK1-K217-S514) [°C] | ΔTm at 10 µM [1] [°C] | SMILES |
| --- | --- | --- | --- | --- |
| -1.1 | -0.352 | -0.251 | -0.503 | CC(C)NC[C@@H](C(=O)N1CCN(c2ncnc3c2[C@H](C)C[C@H]3O)CC1)c1ccc(Cl)cc1 [GDC-0068] |
| -0.749 | -0.218 | -0.392 | -0.899 | CCNC(=O)Nc1ccc(-c2nc3c(c(N4CCOC[C@@H]4C)n2)CCN(C2COC2)C3)cc1 [GDC-0349] |
| -1.04 | -0.0449 | -0.397 | -0.639 | OCCn1cc(-c2ccc3c(c2)CC/C3=N\O)c(-c2ccncc2)n1 [GDC-0879] |
| -0.665 | -0.181 | -0.203 | -0.702 | CS(=O)(=O)N1CCN(Cc2cc3nc(-c4cccc5[nH]ncc45)nc(N4CCOCC4)c3s2)CC1 [GDC-0941] |
| -0.848 | -0.575 | -0.602 | -0.833 | CNc1nc(Nc2cn(C(C)(C)C#N)nc2C)ncc1C(F)(F)F [GNE-0877] |
| -0.898 | -0.506 | -0.456 | -0.927 | CCNc1nc(Nc2cc(F)c(C(=O)N3CCOCC3)cc2OC)ncc1C(F)(F)F [GNE-7915] |
| -0.685 | -0.334 | -0.718 | -0.953 | CNc1nc(Nc2cnn([C@H]3CCN(C4COC4)C[C@@H]3F)c2Cl)ncc1C(F)(F)F [GNE-9605] |
| -9.47 | -7.74 | -4.34 | -0.138 | NC(=O)c1cccc(-c2cc(Nc3ccc(OC(F)(F)F)cc3)ncn2)c1 [GNF-2] |
| -0.507 | 1.16 | 0.543 | -0.0553 | O=C(NCCO)c1cccc(-c2cc(Nc3ccc(OC(F)(F)F)cc3)ncn2)c1 [GNF-5] |
